# Test system: PDE10A
# Details: monkey, PET
# Procedure: The monkey is sedated with ketamin (approximately 10 mg/kg), weighed, and maintained on a constant infusion of ketamin 15 mg/kg/h during transport. During transport the monkey is monitored by pulse oximetry and supported by oxygen. One venous catheter is applied for tracer administration and one venous catheter for blood radioactivity and PK sampling. Propofol is administered until the animal is anesthetized enough to intubate. After intubation the animal is maintained on sevoflurane inhalation anesthesia and artificial ventilation.
# Blood samples (0.2 mL for radioactivity determination are taken at 0.5, 1, 3, 5, 10, 15, 20, 30, 45, 60 and 90 minutes after injection. The samples are labeled with time, date, sampling time in relation to injection, and project number.
# PET scanning and arterial blood sampling is commenced upon start of the administration of the radiolabelled compound.
smiles,measurement,setting,value
"Cc1ccc(C)n2nc(CCc3nc(-c4ccccc4)cn3[11CH3])nc12 [[11C]Lu AE92686, 5,8-dimethyl-2-[2-([^11C-1-methyl]-4-phenyl-1H-imidazol-2-yl)-ethyl]-[1,2,4]triazolo[1,5-a]pyridine]",concentration in cerebellum,cerebellum (very low level of PDE10A),low
same,uptake and retention in striatum,striatum versus other brain regions,highest uptake and retention
same,brain entry,i.v. bolus,readily enters the brain
same,time of peak regional tissue concentrations in brain,"i.v. bolus, post injection",10 to 15 min
